The data set can be described thus: gradient 5% acetonitrile 3 min, to 50% in 2 min, to 85% in 15 min, held 3 min, 100 µL/min. The conditions noted are these: column: Zorbax Extend-C18 2.1 x 50 mm; eluents: water / acetonitrile, 0.1% formic acid. The method in brief: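 The mobile phases were water and acetonitrile, each with 0.1% formic acid, pumped at 100 μL/min through a Zorbax Extend-C18 column (2.1 × 50 mm, 1.8 μm). Pure standards were injected as mixtures of ~100 molecules and detected by a quadrupole time-of-flight mass spectrometer in positive and negative ionization mode. Retention time came from computationally picked adduct peaks, each inspected by hand.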
Consider `CCOc1nc2ccccc2nc1N1CCCC(C(=O)Nc2ccc(Br)cc2F)C1` (centres undefined), for which the RP-LC retention time is 1390 s. On to `CC(=O)N1CCc2sc(C(=O)NCc3cccc(Br)c3)cc2C1`, for which the RP-LC retention time turned out to be 768 s.

Compound `O=C1NCCCCCCN(C(=O)c2ccsc2)[C@H]2CCCC[C@@H]12` registered an RP-LC retention time of 786 s. As for `CCC(=O)N(C1CCOCC1)C1CCN(S(=O)(=O)c2cccc(C)c2)CC1`, the figure is 836 s; as for `Cc1cccc(OCc2nc(-c3ccc(NS(=O)(=O)c4cccs4)cc3)no2)c1`, 1090 s; as for `Cc1cc(-c2c(C)sc(C)c2S(=O)(=O)N2CCN(c3ccccc3F)CC2)n[nH]1`, 971 s. In the case of `CCN1C(=O)c2cc(S(=O)(=O)NCc3cccc(Cl)c3)ccc2Oc2cccnc21`, the RP-LC retention time stood at 1030 s. `O=C1CN(S(=O)(=O)c2ccccc2C(F)(F)F)CC2(CCCCC2)N1C1CCCC1`: the RP-LC retention time came to 1230 s. Take `Cc1ccc(Cl)cc1NC(=O)N1CCCC1c1c(C)noc1C` (centres undefined): the RP-LC retention time came to 853 s.

In the case of `CCc1ccc(Nc2nc(C(=O)NCc3ccco3)nc3ccccc23)cc1`, the RP-LC retention time came to 808 s.

In turn, `CCC(C)NC(=O)N1CCN(c2cc(-c3cc(F)ccc3OC)ncn2)CC1` (centres undefined) had an RP-LC retention time of 636 s.

As for `CCOc1ccc(-n2c(N3CCC(C)CC3)nc3cc(C(=O)OC)ccc3c2=O)cc1`, the RP-LC retention time is 1300 s. As to `COc1ccc(S(=O)(=O)N2CCC(n3cnc4ccc(C)cc4c3=O)CC2)cc1OC`, the RP-LC retention time is 827 s. Take `CCCn1cc(CCNC(=O)c2ccc(F)cc2Cl)c2cccnc21`: the RP-LC retention time was 788 s. Regarding `Cc1ccc(-c2nc3cnccn3c2NCCC(=O)NC(C)c2cccnc2)cc1` (centres undefined), the RP-LC retention time came to 569 s.

As for `Cc1nn(-c2cc(N(C)C)ncn2)c(C)c1CCC(=O)N1CCC(Cc2ccccc2)CC1`, the RP-LC retention time amounted to 969 s. `CCc1nc2ccccc2c(=O)n1Cc1noc(-c2ccc(F)cc2)n1` showed an RP-LC retention time of 998 s. For `COc1cc2c(cc1OC)C(C(=O)NCCCN1CCOCC1)C(c1cccs1)N(C)C2=O` (centres undefined), the RP-LC retention time came to 596 s.

The compound `O=C1C(N2CCCN(S(=O)(=O)c3cccc(Cl)c3)CC2)CCN1Cc1ccccc1` (centres undefined) gave an RP-LC retention time of 718 s. As to `Nc1nc(Nc2ccc3c(c2)CC[C@@H](N2CCCC2)CC3)nn1-c1cc2c(nn1)-c1ccccc1CCC2`, the RP-LC retention time came out at 760 s. Turning to `O=C(Cc1ccccc1F)Nc1ccc(-c2cn3c(C(=O)N4CCCC4)csc3n2)cc1`, the RP-LC retention time was 791 s.

`O=C(Nc1ccccc1)N1CCc2nc(-c3ccccc3)ncc2C1` showed an RP-LC retention time of 859 s.

Consider `COc1ccc(NC(=O)N2CCC3(CC2)NC(=O)c2ccc(Cl)cc2N3C)c(C)c1`, for which the RP-LC retention time amounted to 787 s. For the compound `CCCNC(=O)C1CCCN(c2ccc(SCC(=O)Nc3cc(OC)cc(OC)c3)nn2)C1` (centres undefined), the RP-LC retention time came out at 673 s. As for `O=C(Cn1nc2ncccn2c1=O)NCc1ccco1`, the figure is 539 s; as for `OCCNc1nc(NCCc2cccs2)nc2c1cnn2-c1ccc(F)cc1`, 698 s.

Take `CCOC(=O)C1CCN(C(=O)Cn2nc3c(N4CCCCCC4)nccn3c2=O)CC1`: the RP-LC retention time amounted to 652 s. `Cc1ccc(S(=O)(=O)N2CCC3(CC2)NCCN=C3NCc2ccc(F)cc2)cc1C`: the RP-LC retention time came out at 757 s. Take `COc1ccc(CNC(=O)c2cn(C)nc2S(=O)(=O)N2CCC(C)CC2)cc1`: the RP-LC retention time amounted to 904 s. `COc1cccc(OC)c1OCCNCC1CSc2ccccc2O1` (centres undefined) registered an RP-LC retention time of 815 s.

`CCOc1ccccc1-c1noc(Cn2c(=O)n(-c3ccc(Cl)cc3)c(=O)c3sccc32)n1` gave an RP-LC retention time of 1030 s.

On to `CCOc1ccc(NS(=O)(=O)c2ccc3c(c2)C(=O)N(C)c2ncccc2O3)cc1`, for which the RP-LC retention time worked out at 907 s. With `O=C(C1=CN(c2ccc3c(c2)OCO3)c2ccccc2S1(=O)=O)N1CCCCC1`, the RP-LC retention time stood at 780 s. `COc1cccc(-c2ccc(=O)n(Cc3nc(-c4ccc(F)cc4)no3)n2)c1` registered an RP-LC retention time of 984 s. As for `Clc1ccccc1-n1ncc2c(NCc3ccco3)ncnc21`, the RP-LC retention time amounted to 719 s. `O=C1CCC(CCNS(=O)(=O)c2cc(Cl)ccc2Cl)CCN1CC1CC1` (centres undefined) registered an RP-LC retention time of 897 s. `Cc1ccn2cc(-c3ccc(NC(=O)c4ccccc4Cl)cc3)nc2n1`: the RP-LC retention time came to 652 s. As for `CC(C)NP(=O)(NC(C)C)OP(=O)(NC(C)C)NC(C)C`, the figure is 762 s. As for `O=C(O)c1cn(Cc2ccccn2)nc1S(=O)(=O)N1CCc2ccccc2C1`, the figure is 690 s. Turning to `CC(=O)c1ccc(N2CCN(C(=O)CN3C(=O)C(C)(C)c4cc(C)ccc43)CC2)cc1`, the RP-LC retention time stood at 855 s. For `O=C1CCCCC(C(=O)Nc2cccc(Cl)c2)N1` (centres undefined), the RP-LC retention time came out at 712 s. In the case of `Cc1nc2c(sc3nc(-c4ccccc4)ccc32)c(=O)n1CC(=O)NCc1ccccc1`, the RP-LC retention time is 972 s.

Compound `C=C1C(=O)O[C@@H]2[C@H]3O[C@]3(C)CC/C=C(\C)CC[C@@H]12` displayed an RP-LC retention time of 898 s. `Cc1cccc(-c2nsc(SCC(=O)N3CCc4ccccc43)n2)c1`: the RP-LC retention time was found to be 1150 s.

On to `O=c1c(=O)n(-c2cccc(Cl)c2)ccn1Cc1nc(-c2ccc(F)cc2)no1`, for which the RP-LC retention time is 881 s. The compound `COc1ccc(Cl)cc1NC(=O)NCCC1CCN(S(=O)(=O)c2ccc(F)cc2)CC1` registered an RP-LC retention time of 1030 s. In turn, `N#Cc1cccc(C(=O)NC2CCN(C(=O)C3CC3)C2)c1` (centres undefined) registered an RP-LC retention time of 651 s.

Consider `CCCn1ccc2sc(C)c(C(=O)NC(C)C)c2c1=O`, for which the RP-LC retention time came to 720 s. Take `CC(Cc1ccco1)NC(=O)C(C)n1c2ccccc2c2cnn(C)c(=O)c21` (centres undefined): the RP-LC retention time was determined as 603 s.

`CO[C@H]1C(=O)N(C(C)C)[C@H]1C1CCN(C(=O)c2sc(C)nc2C)CC1` showed an RP-LC retention time of 650 s. In turn, `CCOc1ccc(-c2noc(Cn3ccnc3)n2)cc1` returned an RP-LC retention time of 635 s. Regarding `Cc1cccc(NC(=O)c2c(O)c3cccnc3n(-c3ccccc3)c2=O)c1C`, the RP-LC retention time turned out to be 1300 s.

On to `CC(NC(=O)c1ccc2nc(-c3ccc(Cl)cc3)cn2c1)c1cccnc1` (centres undefined), for which the RP-LC retention time is 603 s.

As to `CCC(=O)N1CCc2cc(N3CC(C(=O)NCc4ccncc4)CC3=O)ccc21` (centres undefined), the RP-LC retention time was determined as 578 s. The compound `Cc1cc(N2CCC(NC(=O)Nc3ccccc3)C2=O)ccc1F` (centres undefined) returned an RP-LC retention time of 824 s. On to `Cc1nn(C(C)C(=O)NCCN2CCCCCC2)c(=O)c2c(-n3cccc3)n(-c3ccccc3)nc12` (centres undefined), for which the RP-LC retention time worked out at 736 s. Regarding `CCOc1cccc(-c2noc(CN3C(=O)COc4cc(Cl)ccc43)n2)c1`, the RP-LC retention time came out at 1180 s. `COCCCN1CN=C(Nc2nc(C)c3ccccc3n2)NC1`: the RP-LC retention time amounted to 626 s. In turn, `CNC(=O)Cc1csc(NC(=O)c2csc(Nc3cccc(C)n3)n2)n1` yielded an RP-LC retention time of 711 s. Compound `O=C(NCC(=O)N1CCn2c1nc1ccccc12)c1ccc(=O)[nH]c1` gave an RP-LC retention time of 555 s.

In turn, `N#Cc1cnn(-c2cccc(Cl)c2)c1-n1cccc1` had an RP-LC retention time of 1070 s. The compound `O=C(CCC(=O)N1CC2CCCN2c2ccccc21)NCCCN1CCCCC1` (centres undefined) registered an RP-LC retention time of 646 s.

On to `O=C(c1cncc(Br)c1)N1CCN(c2ccc(-c3cccs3)nn2)CC1`, for which the RP-LC retention time was 651 s.

`COc1ccc(N2CC(c3noc(-c4ccc(F)cc4)n3)CC2=O)cc1OC` (centres undefined) returned an RP-LC retention time of 856 s. Turning to `CC(C)CN1C(=O)c2cccn2CC1CNC(=O)c1cccs1` (centres undefined), the RP-LC retention time came to 715 s. As for `Cc1nc(-c2ccc(C(=O)NC(C)C)cc2)cs1`, the RP-LC retention time came to 731 s. `COc1cccc(Nc2cc(C(=O)N3CCSCC3)nc3ccc(C)cc23)c1` came in with an RP-LC retention time of 694 s.

`Cc1nn(CC(=O)NCCN(C)C2CCCCC2)c(=O)c2c(C)n(-c3ccccc3)nc12` displayed an RP-LC retention time of 653 s. Compound `Cc1ccc2c(C(=O)O)cc(NC(=O)C3CCC3)cc2n1` yielded an RP-LC retention time of 574 s. As for `CCC(C)NC(=O)c1cc(NC(C)=O)cc2nc(C)ccc12` (centres undefined), the figure is 575 s; as for `CC1=C(C(=O)N2CCOCC2)C(c2ccc(Br)cc2)C2=C(CC(C)(C)CC2=O)N1` (centres undefined), 723 s; as for `Cc1cc(N2CCOCC2)nc(N2CCN(S(=O)(=O)c3ccc4c(c3)Cc3ccccc3-4)CC2)n1`, 813 s. Compound `Cc1ccc2ncn(C3CCN(S(=O)(=O)c4ccccc4C)CC3)c(=O)c2c1` had an RP-LC retention time of 929 s.

In turn, `O=C(c1ccc([N+](=O)[O-])o1)N1CC2CC(C1)c1cccc(=O)n1C2` (centres undefined) gave an RP-LC retention time of 585 s. The result for `CCC(C)NC(=O)NCCC1CCN(S(=O)(=O)c2ccccc2)CC1` (centres undefined) reads 742 s; that for `CC(CCc1ccccc1)NC(=O)C1CCN(Cc2cn(C)c3ccc(Cl)cc23)CC1` (centres undefined), 790 s. Compound `Fc1ccccc1N1CCN(c2ncnc3sc4c(c23)CCC4)CC1` displayed an RP-LC retention time of 1150 s. The compound `O=S(=O)(NC1CCCCC1)c1ccccc1-c1nc(-c2ccccc2)no1` returned an RP-LC retention time of 1280 s. The result for `O=C(CCSc1nnc2ccc3ccccc3n12)Nc1ccc(F)cc1` reads 878 s.
